Columns and labels:
Experiment in all cases: relative viability (nuclei count vs DMSO), 5 days (fraction); higher = more cells survive
Linsitinib + Bortezomib = compound: C[C@]1(O)C[C@@H](c2nc(-c3ccc4ccc(-c5ccccc5)nc4c3)c3c(N)nccn32)C1 [Linsitinib] + CC(C)C[C@H](NC(=O)[C@H](Cc1ccccc1)NC(=O)c1cnccn1)B(O)O [Bortezomib] (partner 0.002 µM)
Procedure, shortened: (§1)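 Lung cancer cell lines in 1536-well plates got either a single drug or a fixed anchor-drug dose together with five library-drug doses (not always all listed) in √10 steps, by pin tool, on the day after seeding. Nuclei were counted after 5 days, and relative viability is the treated-to-vehicle ratio of nuclei counts. Values are medians of duplicate plates.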

Ispinesib + Luminespib = compound: Cc1ccc(C(=O)N(CCCN)[C@@H](c2nc3cc(Cl)ccc3c(=O)n2Cc2ccccc2)C(C)C)cc1 [Ispinesib] + CCNC(=O)c1noc(-c2cc(C(C)C)c(O)cc2O)c1-c1ccc(CN2CCOCC2)cc1 [Luminespib] (partner 0.01 µM)
Procedure, shortened: as §1

Linsitinib + Tozasertib = compound: C[C@]1(O)C[C@@H](c2nc(-c3ccc4ccc(-c5ccccc5)nc4c3)c3c(N)nccn32)C1 [Linsitinib] + Cc1cc(Nc2cc(N3CCN(C)CC3)nc(Sc3ccc(NC(=O)C4CC4)cc3)n2)n[nH]1 [Tozasertib] (partner 0.1 µM)
Procedure, shortened: as §1

Ispinesib + AZD7762 = compound: Cc1ccc(C(=O)N(CCCN)[C@@H](c2nc3cc(Cl)ccc3c(=O)n2Cc2ccccc2)C(C)C)cc1 [Ispinesib] + NC(=O)Nc1cc(-c2cccc(F)c2)sc1C(=O)N[C@H]1CCCNC1 [AZD7762] (partner 0.2 µM)
Procedure, shortened: as §1

## NCI-H2085
Linsitinib + Bortezomib; first compound 0.01 µM
  relative viability: 1.03
Linsitinib + Bortezomib; first compound 0.03162 µM
  relative viability: 1.06
Linsitinib + Bortezomib; first compound 0.1 µM
  relative viability: 0.997
Linsitinib + Bortezomib; first compound 0.3162 µM
  relative viability: 0.888
Linsitinib + Bortezomib; first compound 1 µM
  relative viability: 0.976
Ispinesib + Luminespib; first compound 0.001 µM
  relative viability: 0.484
Ispinesib + Luminespib; first compound 0.003162 µM
  relative viability: 0.421
Ispinesib + Luminespib; first compound 0.01 µM
  relative viability: 0.491
Ispinesib + Luminespib; first compound 0.03162 µM
  relative viability: 0.401
Ispinesib + Luminespib; first compound 0.1 µM
  relative viability: 0.447
Linsitinib + Tozasertib; first compound 0.01 µM
  relative viability: 0.768
Linsitinib + Tozasertib; first compound 0.03162 µM
  relative viability: 0.748
Linsitinib + Tozasertib; first compound 0.1 µM
  relative viability: 0.932
Linsitinib + Tozasertib; first compound 0.3162 µM
  relative viability: 0.817
Linsitinib + Tozasertib; first compound 1 µM
  relative viability: 0.706
Ispinesib + AZD7762; first compound 0.001 µM
  relative viability: 0.962
Ispinesib + AZD7762; first compound 0.003162 µM
  relative viability: 1.08
Ispinesib + AZD7762; first compound 0.01 µM
  relative viability: 1.07
Ispinesib + AZD7762; first compound 0.03162 µM
  relative viability: 0.806
Ispinesib + AZD7762; first compound 0.1 µM
  relative viability: 0.466

## NCI-H2087
Linsitinib + Bortezomib; first compound 0.01 µM
  relative viability: 0.947
Linsitinib + Bortezomib; first compound 0.03162 µM
  relative viability: 0.97
Linsitinib + Bortezomib; first compound 0.1 µM
  relative viability: 0.945
Linsitinib + Bortezomib; first compound 0.3162 µM
  relative viability: 0.594
Linsitinib + Bortezomib; first compound 1 µM
  relative viability: 0.641
Ispinesib + Luminespib; first compound 0.001 µM
  relative viability: 0.168
Ispinesib + Luminespib; first compound 0.003162 µM
  relative viability: 0.159
Ispinesib + Luminespib; first compound 0.01 µM
  relative viability: 0.189
Ispinesib + Luminespib; first compound 0.03162 µM
  relative viability: 0.14
Ispinesib + Luminespib; first compound 0.1 µM
  relative viability: 0.151
Linsitinib + Tozasertib; first compound 0.01 µM
  relative viability: 0.219
Linsitinib + Tozasertib; first compound 0.03162 µM
  relative viability: 0.259
Linsitinib + Tozasertib; first compound 0.1 µM
  relative viability: 0.196
Linsitinib + Tozasertib; first compound 0.3162 µM
  relative viability: 0.141
Linsitinib + Tozasertib; first compound 1 µM
  relative viability: 0.203
Ispinesib + AZD7762; first compound 0.001 µM
  relative viability: 1.35
Ispinesib + AZD7762; first compound 0.003162 µM
  relative viability: 1.37
Ispinesib + AZD7762; first compound 0.01 µM
  relative viability: 1.48
Ispinesib + AZD7762; first compound 0.03162 µM
  relative viability: 1.02
Ispinesib + AZD7762; first compound 0.1 µM
  relative viability: 0.558

## NCI-H2126
Linsitinib + Bortezomib; first compound 0.01 µM
  relative viability: 1.13
Linsitinib + Bortezomib; first compound 0.03162 µM
  relative viability: 1.14
Linsitinib + Bortezomib; first compound 0.1 µM
  relative viability: 1.13
Linsitinib + Bortezomib; first compound 0.3162 µM
  relative viability: 0.687
Linsitinib + Bortezomib; first compound 1 µM
  relative viability: 1.06
Ispinesib + Luminespib; first compound 0.001 µM
  relative viability: 0.927
Ispinesib + Luminespib; first compound 0.003162 µM
  relative viability: 1.02
Ispinesib + Luminespib; first compound 0.01 µM
  relative viability: 1.03
Ispinesib + Luminespib; first compound 0.03162 µM
  relative viability: 0.844
Ispinesib + Luminespib; first compound 0.1 µM
  relative viability: 0.428
Linsitinib + Tozasertib; first compound 0.01 µM
  relative viability: 0.768
Linsitinib + Tozasertib; first compound 0.03162 µM
  relative viability: 0.828
Linsitinib + Tozasertib; first compound 0.1 µM
  relative viability: 0.767
Linsitinib + Tozasertib; first compound 0.3162 µM
  relative viability: 0.727
Linsitinib + Tozasertib; first compound 1 µM
  relative viability: 0.646
Ispinesib + AZD7762; first compound 0.001 µM
  relative viability: 1.04
Ispinesib + AZD7762; first compound 0.003162 µM
  relative viability: 1.08
Ispinesib + AZD7762; first compound 0.01 µM
  relative viability: 1.2
Ispinesib + AZD7762; first compound 0.03162 µM
  relative viability: 1.03
Ispinesib + AZD7762; first compound 0.1 µM
  relative viability: 0.591

## NCI-H2347
Linsitinib + Bortezomib; first compound 0.01 µM
  relative viability: 0.885
Linsitinib + Bortezomib; first compound 0.03162 µM
  relative viability: 0.737
Linsitinib + Bortezomib; first compound 0.1 µM
  relative viability: 0.941
Linsitinib + Bortezomib; first compound 0.3162 µM
  relative viability: 0.77
Linsitinib + Bortezomib; first compound 1 µM
  relative viability: 1.05
Ispinesib + Luminespib; first compound 0.001 µM
  relative viability: 0.375
Ispinesib + Luminespib; first compound 0.003162 µM
  relative viability: 0.503
Ispinesib + Luminespib; first compound 0.01 µM
  relative viability: 0.624
Ispinesib + Luminespib; first compound 0.03162 µM
  relative viability: 0.359
Ispinesib + Luminespib; first compound 0.1 µM
  relative viability: 0.469
Linsitinib + Tozasertib; first compound 0.01 µM
  relative viability: 0.557
Linsitinib + Tozasertib; first compound 0.03162 µM
  relative viability: 0.669
Linsitinib + Tozasertib; first compound 0.1 µM
  relative viability: 0.571
Linsitinib + Tozasertib; first compound 1 µM
  relative viability: 0.414
Ispinesib + AZD7762; first compound 0.001 µM
  relative viability: 0.558
Ispinesib + AZD7762; first compound 0.003162 µM
  relative viability: 0.856
Ispinesib + AZD7762; first compound 0.01 µM
  relative viability: 0.745
Ispinesib + AZD7762; first compound 0.03162 µM
  relative viability: 0.701
Ispinesib + AZD7762; first compound 0.1 µM
  relative viability: 0.636
